Measured values as given in paper PMC4498724 (Drug Design, Development and Therapy, 2015).

Assays:
[1] = target: T1, ABCG2 (Homo sapiens, UniProt Q9UNQ0); experiment: Inhibition of ABCG2-mediated mitoxantrone efflux in ABCG2-transfected cells; assay type: cell-based
T1 sequence (Q9UNQ0 1-655): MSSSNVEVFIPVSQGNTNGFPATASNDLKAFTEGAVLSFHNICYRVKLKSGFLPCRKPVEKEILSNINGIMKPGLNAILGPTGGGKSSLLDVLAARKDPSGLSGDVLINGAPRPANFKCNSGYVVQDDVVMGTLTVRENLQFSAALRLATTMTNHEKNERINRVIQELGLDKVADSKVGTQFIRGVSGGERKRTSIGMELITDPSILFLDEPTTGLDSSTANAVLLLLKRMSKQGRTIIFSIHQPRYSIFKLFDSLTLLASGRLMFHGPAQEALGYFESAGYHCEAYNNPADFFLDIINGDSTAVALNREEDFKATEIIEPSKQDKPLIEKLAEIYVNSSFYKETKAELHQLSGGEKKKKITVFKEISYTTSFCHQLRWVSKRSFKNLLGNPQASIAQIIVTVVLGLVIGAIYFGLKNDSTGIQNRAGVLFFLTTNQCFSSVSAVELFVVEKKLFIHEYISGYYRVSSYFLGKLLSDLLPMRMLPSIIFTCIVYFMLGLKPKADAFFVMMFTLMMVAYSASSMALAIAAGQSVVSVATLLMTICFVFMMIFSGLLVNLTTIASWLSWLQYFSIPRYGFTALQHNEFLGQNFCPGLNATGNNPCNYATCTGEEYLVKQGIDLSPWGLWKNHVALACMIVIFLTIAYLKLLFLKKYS

[2] = target: T2, human CK2 holoenzyme (Homo sapiens, UniProt P68400); conditions: IC50 (CK2) divided by IC50 (ABCG2) of Table 1
[3] = target: T2, human CK2 holoenzyme; experiment: biochemical; conditions: for inhibition at 10 µM: read-out: CK2 inhibition % at 10 µM
[4] = system: Wild-type HEK293 cells; experiment: Intrinsic cytotoxicity, MTT cell-survival assay; conditions: 72 hours of treatment
[5] = target: T1, ABCG2; experiment: Vanadate-sensitive ATPase activity of ABCG2 in Sf9 insect cell membranes; conditions: 2 μM compound; for Stimulation of vanadate-sensitive ABCG2 ATPase activity: basal activity without inhibitor taken as 100%
[6] = target: MRP1/ABCC1 (Homo sapiens, UniProt P33527); experiment: Inhibition of MRP1-mediated calcein efflux in HEK293-ABCC1 cells; assay type: cell-based; conditions: 2 μM or 10 μM; 35 μM verapamil taken as 100%
MRP1/ABCC1, sequence (P33527 whole entry): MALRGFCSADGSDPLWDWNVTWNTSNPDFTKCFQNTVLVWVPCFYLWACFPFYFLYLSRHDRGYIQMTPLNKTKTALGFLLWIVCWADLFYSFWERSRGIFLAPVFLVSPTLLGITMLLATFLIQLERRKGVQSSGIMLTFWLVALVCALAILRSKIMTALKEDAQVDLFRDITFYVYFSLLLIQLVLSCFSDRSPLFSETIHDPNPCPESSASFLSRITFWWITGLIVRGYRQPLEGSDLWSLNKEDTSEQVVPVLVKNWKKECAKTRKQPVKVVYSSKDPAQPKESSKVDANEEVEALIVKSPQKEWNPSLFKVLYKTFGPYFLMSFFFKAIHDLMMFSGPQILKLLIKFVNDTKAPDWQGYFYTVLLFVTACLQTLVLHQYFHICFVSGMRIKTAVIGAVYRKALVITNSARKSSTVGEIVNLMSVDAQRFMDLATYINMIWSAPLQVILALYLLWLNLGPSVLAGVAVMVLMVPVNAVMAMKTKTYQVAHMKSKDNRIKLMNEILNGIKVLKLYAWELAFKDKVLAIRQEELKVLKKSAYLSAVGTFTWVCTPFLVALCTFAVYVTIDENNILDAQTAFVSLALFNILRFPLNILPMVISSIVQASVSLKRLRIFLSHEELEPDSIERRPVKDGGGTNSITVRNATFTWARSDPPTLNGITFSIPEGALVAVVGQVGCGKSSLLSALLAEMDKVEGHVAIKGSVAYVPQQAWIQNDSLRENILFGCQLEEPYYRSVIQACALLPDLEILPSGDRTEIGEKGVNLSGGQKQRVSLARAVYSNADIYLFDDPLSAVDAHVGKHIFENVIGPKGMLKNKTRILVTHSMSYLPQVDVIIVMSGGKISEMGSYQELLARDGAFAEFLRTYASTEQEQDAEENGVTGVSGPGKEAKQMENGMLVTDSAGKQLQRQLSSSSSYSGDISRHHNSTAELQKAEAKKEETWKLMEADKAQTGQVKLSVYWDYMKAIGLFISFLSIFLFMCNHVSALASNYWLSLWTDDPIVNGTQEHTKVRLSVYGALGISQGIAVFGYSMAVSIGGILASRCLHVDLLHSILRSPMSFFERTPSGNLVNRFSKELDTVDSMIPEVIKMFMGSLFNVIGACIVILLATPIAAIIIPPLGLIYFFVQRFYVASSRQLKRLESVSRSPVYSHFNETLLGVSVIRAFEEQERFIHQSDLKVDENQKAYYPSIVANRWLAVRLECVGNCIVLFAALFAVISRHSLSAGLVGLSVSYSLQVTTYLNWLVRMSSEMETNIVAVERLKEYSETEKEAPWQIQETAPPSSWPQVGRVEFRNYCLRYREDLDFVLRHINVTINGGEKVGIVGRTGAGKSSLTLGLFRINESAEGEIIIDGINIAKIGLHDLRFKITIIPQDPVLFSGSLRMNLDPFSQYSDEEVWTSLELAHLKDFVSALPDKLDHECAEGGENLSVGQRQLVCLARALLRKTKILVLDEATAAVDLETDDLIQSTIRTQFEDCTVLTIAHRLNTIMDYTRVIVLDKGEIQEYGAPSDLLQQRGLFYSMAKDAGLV

T2 sequence (P68400 whole entry): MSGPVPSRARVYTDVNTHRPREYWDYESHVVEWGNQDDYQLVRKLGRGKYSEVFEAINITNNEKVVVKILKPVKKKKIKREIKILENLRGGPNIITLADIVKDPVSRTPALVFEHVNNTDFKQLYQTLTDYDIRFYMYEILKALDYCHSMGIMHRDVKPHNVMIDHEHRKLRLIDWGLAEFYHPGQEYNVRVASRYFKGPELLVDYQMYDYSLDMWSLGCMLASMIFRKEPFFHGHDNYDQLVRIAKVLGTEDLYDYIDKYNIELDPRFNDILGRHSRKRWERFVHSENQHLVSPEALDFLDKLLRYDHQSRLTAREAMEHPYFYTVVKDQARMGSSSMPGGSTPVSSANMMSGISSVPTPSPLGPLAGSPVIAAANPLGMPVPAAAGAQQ
T2 sequence (P67870 whole entry partner): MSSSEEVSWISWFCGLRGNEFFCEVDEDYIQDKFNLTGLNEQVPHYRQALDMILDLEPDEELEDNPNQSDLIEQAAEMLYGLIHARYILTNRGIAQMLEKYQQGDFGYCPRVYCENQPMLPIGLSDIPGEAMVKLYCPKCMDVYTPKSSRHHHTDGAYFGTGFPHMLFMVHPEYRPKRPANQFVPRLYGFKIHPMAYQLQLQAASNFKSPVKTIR

Compound	IC50 [1]	AGCG2/CK2 [2]	IC50 [3]	inhibition at 10 µM [3]	Cytotoxicity IG50 [4]	Stimulation of vanadate-sensitive ABCG2 ATPase activity [5]	Inhibition of MRP1-mediated calcein efflux [6]	Effect on ABCG2 basal ATPase activity [5]
O=C1c2ccccc2-c2c1c1c(O)cccc1n2CCc1ccccc1 [Compound 5c, 9-Hydroxy-5-(2-phenylethyl)-5H-indeno[1,2-b]indole-10-one]	0.16 ± 0.02 µM	47	7.5 µM	57%	42.7 ± 9.7 µM	2- to 4.5 fold	very limited, if any, inhibition	–
O=C1c2ccccc2-c2c1c1c(O)cccc1n2CCCc1ccccc1 [Compound 5d, 9-Hydroxy-5-(3-phenylpropyl)-5H-indeno[1,2-b]indole-10-one]	0.64 ± 0.23 µM	–	~20 µM	27%	–	2- to 4.5 fold	–	–
Cc1cc(O)c2c3c(n(CCc4ccccc4)c2c1)-c1ccccc1C3=O [Compound 5f, 9-Hydroxy-7-methyl-5-(2-phenylethyl)-5H-indeno[1,2-b]indole-10-one]	0.16 ± 0.01 µM	–	–	–	42.3 ± 2.8 µM	2- to 4.5 fold	very limited, if any, inhibition	–
O=C1c2ccccc2-c2c1c1c(O)cc(-c3ccccc3)cc1n2CCc1ccccc1 [Compound 5g, 9-Hydroxy-7-phenyl-5-(2-phenylethyl)-5H-indeno[1,2-b]indole-10-one]	0.51 ± 0.09 µM	–	~11 µM	–	–	2- to 4.5 fold	–	–
COc1ccccc1CCn1c2c(c3c(O)cccc31)C(=O)c1ccccc1-2 [Compound 5h, 9-Hydroxy-5-[2-(2-methoxyphenyl)ethyl]-5H-indeno[1,2-b]indole-10-one]	0.15 ± 0.01 µM	–	1.3 µM	–	54 ± 14 µM	2- to 4.5 fold	very limited, if any, inhibition	–
COc1cccc(CCn2c3c(c4c(O)cccc42)C(=O)c2ccccc2-3)c1 [Compound 5i, 9-Hydroxy-5-[2-(3-methoxyphenyl)ethyl]-5H-indeno[1,2-b]indole-10-one]	0.37 ± 0.09 µM	–	~11.5 µM	44%	45.7 ± 6.1 µM	2- to 4.5 fold	–	–
COc1ccc(CCn2c3c(c4c(O)cccc42)C(=O)c2ccccc2-3)cc1 [Compound 5j, 9-Hydroxy-5-[2-(4-methoxyphenyl)ethyl]-5H-indeno[1,2-b]indole-10-one]	0.2 ± 0.01 µM	–	~14 µM	–	–	2- to 4.5 fold	–	maximal stimulation
O=c1ccc(=O)c2c1c1c(=O)c3ccccc3c1n2CCc1ccccc1 [Compound 6c, 5-(2-Phenylethyl)-5H-indeno[1,2-b]indole-6,9,10-trione]	~30 µM	–	~13 µM	40%	6.9 ± 2.1 µM	–	–	did not produce any effect
O=c1ccc(=O)c2c1c1c(=O)c3ccccc3c1n2CCCc1ccccc1 [Compound 6d, 5-(3-Phenylpropyl)-5H-indeno[1,2-b] indole-6,9,10-trione]	~15 µM	–	6.4 µM	60%	6.8 ± 0.5 µM	–	–	–
O=c1cc(-c2ccccc2)c(=O)c2c1c1c(=O)c3ccccc3c1n2Cc1ccccc1 [Compound 6e, 5-Benzyl-7-phenyl-5H-indeno[1,2-b]indole-6,9,10-trione]	~13 µM	–	~13 µM	40%	7.1 ± 1.1 µM	–	–	did not produce any effect
Cc1cc(=O)c2c3c(=O)c4ccccc4c3n(CCc3ccccc3)c2c1=O [Compound 6f, 7-Methyl-5-(2-phenylethyl)-5H-indeno[1,2-b]indole-6,9,10-trione]	0.84 ± 0.31 µM	–	–	–	15.6 ± 5.9 µM	–	very limited, if any, inhibition	did not produce any effect
O=c1cc(-c2ccccc2)c(=O)c2c1c1c(=O)c3ccccc3c1n2CCc1ccccc1 [Compound 6g, 7-Phenyl-5-(2-phenylethyl)-5H-indeno[1,2-b]indole-6,9,10-trione]	0.43 ± 0.01 µM	–	~11.5 µM	44%	3.7 ± 2.2 µM	–	very limited, if any, inhibition	very limited stimulation
